# Assay results published in US12043670B2, “Anti-BCMA antibody-drug conjugates and methods of use” (Eisai R&D Management Co., Ltd., priority 2020, dated 2024).
# Where two headings read alike, the source gives them in different places.
# What was measured:
# U266B1 cells = test: 6-day CellTiter-Glo cell viability, U266B1; format: cell-based, human
# NCI-H929 cells = test: CellTiter-Glo cell viability, NCI-H929 (normal serum); format: cell-based, human; conditions: for GI50: Homo sapiens
# EJM cells = test: 6-day CellTiter-Glo cell viability, EJM; format: cell-based, human
# [1] = tested on: splicing of Ad2.1 pre-mRNA in HeLa nuclear extract; test: In vitro splicing (IVS), qPCR readout, Ad2.1 substrate; format: biochemical
# Procedure: To evaluate payload activity in a cell-free system, an in vitro splicing assay was performed. The payloads were incubated with nuclear extracts and pre-mRNA substrate minigenes.
# HeLa nuclear extract preparation: HeLa S3 cell pellets were resuspended in hypotonic buffer (10 mM HEPES pH 7.9, 1.5 mM MgCl2, 10 mM KCl, 0.2 mM PMSF, 0.5 mM DTT) and the suspension was brought up to a total of 5 packed cell volume (PCV). After centrifugation, the supernatant was discarded, and the cells were brought up to 3 PCV with hypotonic buffer and incubated on ice for 10 min. Cells were lysed using a dounce homogenizer and then centrifuged. The supernatant was discarded, and the pellet was resuspended with ½ packed nuclear volume (PNV) of low salt buffer (20 mM HEPES pH 7.9, 1.5 mM MgCl2, 20 mM KCl, 0.2 mM EDTA, 25% glycerol, 0.2 mM PMSF, 0.5 mM DTT), followed by ½ PNV of high salt buffer (same as low salt buffer except 1.4 M KCl). The nuclei were gently mixed for 30 min before centrifuging. The supernatant (nuclear extract) was then dialyzed into storage buffer (20 mM HEPES pH 7.9, 100 mM KCl, 0.2 mM EDTA, 20% glycerol, 0.2 mM PMSF, 0.5 mM DTT). Protein concentration was determined using NanoDrop 8000 UV-Vis spectrophotometer (ThermoFisher Scientific). […]
# MOLP8 cells = test: CellTiter-Glo cell viability, MOLP8; format: cell-based, human
# RPMI-8226 cells = test: 6-day CellTiter-Glo cell viability, RPMI-8226; format: cell-based, human
# KMS-11 cells = test: 6-day CellTiter-Glo cell viability, KMS-11; format: cell-based, human
# LP-1 cells = test: 6-day CellTiter-Glo cell viability, LP-1; format: cell-based, human
# [2] = Chemical stability in buffer pH 5.5; format: physicochemical; conditions: Mcilvane (Citrate-Phosphate) buffer pH 5.5, 37° C., read-out: Stability %, Mean, t1/2 pH 5.5 (converted)
# Procedure: Payloads were incubated in Mcilvane (Citrate-Phosphate) buffer, pH 5.5 (Boston Bioproducts; #BB-2466) at a final concentration of 20 μM (less than 0.5% DMSO from stock solution). The payload solution and the internal standard were pipetted into 96-well plates, run on UPLC (Waters Aquity H class), and analyzed for initial chromatographic signal (t=0). The column was a Waters UPLC HSS T31.8 μm 2.1×50 mm column (#186003538). A gradient of mobile phase A from 95% to 10% was employed over 1 min, where A was 0.1% formic acid in water and mobile phase B was 0.1% formic acid in acetonitrile (flow rate 0.9 mL/min). The remainder of the payload solution was kept in a plate shaker at 37° C. (Eppendorf ThermoMixer). Sample analyses by UPLC were repeated at 24, 72, and 96 hours post-incubation at 37° C. The area ratio response of the payload and internal standard was determined for three time points: time 0, day 1, and either day 3 or day 4. Time 0 was set to 100. The area ratio responses of the later time points were compared to time 0. Percent remaining was calculated as follows: (Area Ratio day X/Area Ratio time 0)*100=% remaining. The slope of the line was calculated in Excel comparing the log of % remaining and time point.
structure (smiles),measurement,setting,value
"CC[C@H](O)[C@@H](C)[C@H]1O[C@@H]1C[C@@](C)(O)/C=C/C=C(\C)[C@H]1OC(=O)C[C@H](O)CC[C@@](C)(O)[C@@H](OC(=O)N2CCNCC2)/C=C/[C@@H]1C [D1, (2S,3S,6S,7R,10R,E)-7,10-dihydroxy-2-((R,2E,4E)-6-hydroxy-7-((2R,3R)-3-((2R,3S)-3-hydroxypentan-2-yl)oxiran-2-yl)-6-methylhepta-2,4-dien-2-yl)-3,7-dimethyl-12-oxooxacyclododec-4-en-6-yl piperazine-1-carboxylate]",GI50,"U266B1 cells; Homo sapiens, 144 h",238 nM
same,AUC (nM * % relative viability),"U266B1 cells; U266B1 cells, 6 days",712.6903 nM * % relative viability
same,LD50,"U266B1 cells; U266B1 cells, 6 days, CellTiter-Glo",504.8119 nM
same,RminAve,"U266B1 cells; U266B1 cells, 6 days, negative = cell death vs T0",−94.2191%
same,GI50,"NCI-H929 cells; NCI-H929, 96 h, read-out: CTGlo Mean GI50 H929 96 h",75.5 nM
same,GI50,"NCI-H929 cells; NCI-H929, 144 h",119 nM
same,AUC (nM * % relative viability),"NCI-H929 cells; NCIH929 cells, 6 days",646.6007 nM * % relative viability
same,LD50,"NCI-H929 cells; NCIH929 cells, 6 days, CellTiter-Glo",246.6292 nM
same,RminAve,"NCI-H929 cells; NCIH929 cells, 6 days, negative = cell death vs T0",−99.8009%
same,CTGlo Mean LD50 H929 96 h,"NCI-H929 cells; payload alone, H929, 96 h",201 nM
same,AUC (nM * % relative viability),"EJM cells; EJM cells, 6 days",664.163 nM * % relative viability
same,LD50,"EJM cells; EJM cells, 6 days, CellTiter-Glo",303.5191 nM
same,RminAve,"EJM cells; EJM cells, 6 days, negative = cell death vs T0",−99.0579%
same,GI50,"EJM cells; Homo sapiens, EJM, 144 h",140 nM
same,IC50,[1],16.5 nM
same,GI50,"MOLP8 cells; Homo sapiens, MOLP-8, 144 h",150 nM
same,AUC (nM * % relative viability),"MOLP8 cells; MOLP8 cells, 6 days",690.1106 nM * % relative viability
same,LD50,"MOLP8 cells; MOLP8 cells, 6 days, CellTiter-Glo",533.6503 nM
same,RminAve,"MOLP8 cells; MOLP8 cells, 6 days, negative = cell death vs T0",−99.755%
same,GI50,"RPMI-8226 cells; Homo sapiens, RPMI-8226, 144 h",122 nM
same,AUC (nM * % relative viability),"RPMI-8226 cells; RPMI8226 cells, 6 days",648.8833 nM * % relative viability
same,LD50,"RPMI-8226 cells; RPMI8226 cells, 6 days, CellTiter-Glo",253.1965 nM
same,RminAve,"RPMI-8226 cells; RPMI8226 cells, 6 days, negative = cell death vs T0",−99.6002%
same,GI50,"KMS-11 cells; Homo sapiens, KMS-11, 144 h",232 nM
same,AUC (nM * % relative viability),"KMS-11 cells; KMS11 cells, 6 days",706.5255 nM * % relative viability
same,LD50,"KMS-11 cells; KMS11 cells, 6 days, CellTiter-Glo",485.9409 nM
same,RminAve,"KMS-11 cells; KMS11 cells, 6 days, negative = cell death vs T0",−99.3474%
same,GI50,"LP-1 cells; Homo sapiens, LP-1, 144 h",112 nM
same,AUC (nM * % relative viability),"LP-1 cells; LP1 cells, 6 days",643.9226 nM * % relative viability
same,LD50,"LP-1 cells; LP1 cells, 6 days, CellTiter-Glo",234.5168 nM
same,RminAve,"LP-1 cells; LP1 cells, 6 days, negative = cell death vs T0",−99.7195%
same,half-life at 20 μM,[2],24 h
